Some test systems named below: HCT-116 colon; SK-MEL-2 melanoma; IGROV1 ovarian; NCI-H460 lung; HS 578T breast; NCI/ADR-RES ovarian; RXF 393 renal; NCI-H23 lung; OVCAR-5 ovarian; A498 renal.
What all share (test): DTP human tumour cell line panel, 48 h

Where “and” joins values, the source holds several entries; their conditions need not be identical. Equal entries are not always repeated.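 Five compound concentrations were applied to cells in 96-well plates for 48 hours; endpoints were derived by simple linear interpolation of the resulting dose-response curve. The concentration for 50% growth inhibition is given as GI50. The concentration for full growth arrest is given as TGI.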

Broadly, the GI50 is the concentration at which growth is held to half of that of the control. The TGI is the concentration giving total growth inhibition. Higher therefore signals lower sensitivity of the cells. Consider `COc1ccc2[nH]c3c(C)c4cc[n+](C)cc4c(C)c3c2c1`, for which the GI50 in the experiment on HCT-116 colon was 0.578 µM and 1.14 µM; in the experiment on SK-MEL-2 melanoma it was 4.87 µM; in the experiment on IGROV1 ovarian, 1.01 µM and 1.13 µM; with NCI-H460 lung, 0.402 µM and 0.998 µM; in the experiment with NCI/ADR-RES ovarian, 7.91 µM and 8.4 µM; with RXF 393 renal, 1.54 µM. Besides, the GI50 in the experiment with NCI-H23 lung is 0.325 µM; in the experiment on OVCAR-5 ovarian, 2.32 µM and 3.07 µM. In addition, the TGI is 13.8 µM [middle of 4 runs] in the experiment with SK-MEL-2 melanoma; 1.13 µM and 0.759 µM in the experiment on HS 578T breast; 16.5 µM [middle of 4 runs] in the experiment on RXF 393 renal; 3.3 µM [middle of 4 runs] in the experiment on NCI-H23 lung; 51.9 µM [middle of 4 runs] with A498 renal.

Turning to `FC(F)(F)c1[nH]ncc1-c1nc2c(N3CCCCC3)cc3[nH]ncc3c2c2c1CCCC2`, the GI50 in the experiment on HCT-116 colon is 0.432 µM; in the experiment on SK-MEL-2 melanoma, 0.968 µM; in the experiment on IGROV1 ovarian it was 0.556 µM; in the experiment on NCI-H460 lung it was 0.49 µM; in the experiment on HS 578T breast, 0.603 µM; in the experiment with NCI/ADR-RES ovarian it was 2.04 µM. For the same molecule, the GI50 with RXF 393 renal is 0.395 µM; with NCI-H23 lung, 0.791 µM; in the experiment on OVCAR-5 ovarian, 1.04 µM; in the experiment on A498 renal it was 0.0566 µM. Besides, the TGI in the experiment on HCT-116 colon was 3.57 µM; with SK-MEL-2 melanoma, 2.31 µM; in the experiment on IGROV1 ovarian it was 3.66 µM; in the experiment with NCI-H460 lung, 1.9 µM; in the experiment with HS 578T breast it was 2 µM; in the experiment with NCI/ADR-RES ovarian, over 50 µM. For the same molecule, the TGI was found to be 1.07 µM in the experiment with RXF 393 renal, 2.99 µM in the experiment with NCI-H23 lung, 3.61 µM with OVCAR-5 ovarian and 0.196 µM in the experiment on A498 renal.

Regarding `Nc1c(S(=O)(=O)O)cc(Nc2cccc(S(N)(=O)=O)c2)c2c1C(=O)c1ccccc1C2=O`, the TGI with HCT-116 colon was over 100 µM; in the experiment with SK-MEL-2 melanoma, over 100 µM; in the experiment on IGROV1 ovarian, over 100 µM; in the experiment with NCI-H460 lung, over 100 µM; with HS 578T breast, 69.9 µM; with NCI/ADR-RES ovarian, over 100 µM. Also, the TGI in the experiment with RXF 393 renal, in the experiment on NCI-H23 lung, in the experiment with OVCAR-5 ovarian and in the experiment on A498 renal was over 100 µM in each case.

Consider `O=c1c2[nH]c3ccccc3c2nc2n1CCS2`, for which the GI50 in the experiment with HCT-116 colon was over 100 µM; in the experiment on SK-MEL-2 melanoma it was over 100 µM; in the experiment with NCI-H460 lung, over 100 µM; in the experiment with HS 578T breast, 26.9 µM; in the experiment with NCI/ADR-RES ovarian, over 100 µM; in the experiment with RXF 393 renal, over 100 µM. Further, the GI50 is over 100 µM in the experiment on NCI-H23 lung, over 100 µM with OVCAR-5 ovarian and 56 µM in the experiment with A498 renal. The TGI with HCT-116 colon, with SK-MEL-2 melanoma, in the experiment on NCI-H460 lung, with HS 578T breast, with NCI/ADR-RES ovarian and in the experiment on RXF 393 renal was over 100 µM in each case. The TGI in the experiment with NCI-H23 lung, with OVCAR-5 ovarian and with A498 renal was over 100 µM each time.

With `C=CC[N+]1(CCO)CCN=C1CCCCCCCCCCCCC` (centres undefined), the GI50 is 1.4 µM in the experiment with HCT-116 colon; 2.04 µM in the experiment on SK-MEL-2 melanoma; 0.288 µM with IGROV1 ovarian; 1.7 µM with NCI-H460 lung; 1.58 µM in the experiment on HS 578T breast; 1.65 µM in the experiment with NCI/ADR-RES ovarian. The GI50 is 1.44 µM in the experiment on RXF 393 renal, 1.5 µM in the experiment on NCI-H23 lung and 2.09 µM in the experiment on A498 renal. The TGI in the experiment with HCT-116 colon worked out at 2.69 µM; in the experiment with SK-MEL-2 melanoma, 3.69 µM; in the experiment with IGROV1 ovarian it was 1.25 µM; with NCI-H460 lung, 3.06 µM; in the experiment on HS 578T breast, 3.76 µM; in the experiment with NCI/ADR-RES ovarian it was 3.01 µM. The TGI is 2.81 µM in the experiment on RXF 393 renal, 2.82 µM in the experiment with NCI-H23 lung and 8.26 µM in the experiment with A498 renal.

Consider `Nc1ccc(-c2ccc(Nc3cc(S(=O)(=O)O)c(N)c4c3C(=O)c3ccccc3C4=O)cc2)c(S(=O)(=O)O)c1`, for which the TGI with HCT-116 colon, with SK-MEL-2 melanoma, in the experiment with IGROV1 ovarian, in the experiment with NCI-H460 lung, in the experiment on HS 578T breast and with NCI/ADR-RES ovarian was over 100 µM throughout. The TGI with RXF 393 renal, in the experiment on NCI-H23 lung, with OVCAR-5 ovarian and with A498 renal was over 100 µM throughout.

In the case of `COc1cc(/C=C2\CCCC3C2=Nc2ccccc2NC3c2cc(OC)c(OC)c(OC)c2)cc(OC)c1OC` (centres undefined), the GI50 in the experiment with HCT-116 colon was 0.968 µM; in the experiment on SK-MEL-2 melanoma, 3.1 µM; in the experiment on IGROV1 ovarian, 4.1 µM; in the experiment on NCI-H460 lung, 0.643 µM; in the experiment with HS 578T breast, 4.75 µM; with NCI/ADR-RES ovarian, 0.957 µM. The GI50 in the experiment on RXF 393 renal is 2.08 µM; with NCI-H23 lung, 2.15 µM; in the experiment with OVCAR-5 ovarian it was 3.68 µM; with A498 renal, 1.49 µM. Also, the TGI was 2.17 µM with HCT-116 colon; 8.33 µM in the experiment with SK-MEL-2 melanoma; 18.5 µM in the experiment on IGROV1 ovarian; 2.42 µM with NCI-H460 lung; over 100 µM in the experiment on HS 578T breast; over 100 µM with NCI/ADR-RES ovarian. The TGI in the experiment on RXF 393 renal was 5.31 µM; in the experiment with NCI-H23 lung it was 13.8 µM; with OVCAR-5 ovarian, 11.9 µM; in the experiment on A498 renal, 6.41 µM.

With `O=C(Nc1ccc(Cl)cc1F)c1cc(F)ccc1O`, the GI50 in the experiment with HCT-116 colon is 0.702 µM; in the experiment on SK-MEL-2 melanoma, 0.519 µM; in the experiment on IGROV1 ovarian, 0.597 µM; with NCI-H460 lung it was 0.647 µM; with HS 578T breast it was 0.718 µM; with NCI/ADR-RES ovarian it was 1.63 µM. In addition, the GI50 in the experiment on RXF 393 renal was 0.864 µM; in the experiment on NCI-H23 lung, 0.553 µM; with OVCAR-5 ovarian it was 3.26 µM; in the experiment on A498 renal it was 0.251 µM. In addition, the TGI in the experiment with HCT-116 colon is 3.51 µM; in the experiment with SK-MEL-2 melanoma, 3.12 µM; in the experiment on IGROV1 ovarian, 17.2 µM; in the experiment with NCI-H460 lung, 13.5 µM; in the experiment with HS 578T breast it was 5.3 µM; with NCI/ADR-RES ovarian, 7.1 µM. Also, the TGI was 4.28 µM in the experiment on RXF 393 renal, 3.29 µM in the experiment with NCI-H23 lung, 23 µM in the experiment on OVCAR-5 ovarian and 0.98 µM in the experiment on A498 renal.

In the case of `Cc1c2cnccc2c(C)c2c1c1cc(C(=O)O)ccc1n2C`, the GI50 is 0.373 µM with HCT-116 colon; 1.38 µM in the experiment with SK-MEL-2 melanoma; 0.911 µM in the experiment with IGROV1 ovarian; 0.874 µM with NCI-H460 lung; 0.891 µM in the experiment on HS 578T breast; 0.764 µM in the experiment with NCI/ADR-RES ovarian. Also, the GI50 in the experiment with RXF 393 renal was 0.666 µM; with NCI-H23 lung, 0.774 µM; in the experiment on OVCAR-5 ovarian it was 1.91 µM; in the experiment on A498 renal, 0.41 µM. In addition, the TGI is over 100 µM in the experiment on HCT-116 colon; 4.03 µM in the experiment on SK-MEL-2 melanoma; 9.84 µM with IGROV1 ovarian; 8.46 µM in the experiment with NCI-H460 lung; 4.82 µM in the experiment on HS 578T breast; 5.5 µM in the experiment with NCI/ADR-RES ovarian. Moreover, the TGI turned out to be 2.33 µM in the experiment on RXF 393 renal, 3.28 µM in the experiment on NCI-H23 lung, 9.52 µM in the experiment with OVCAR-5 ovarian and 2.14 µM in the experiment with A498 renal.

The values are drawn from PubChem BioAssay (NCI).
